Test results as given in US6399298B1, “Ku70—related methods” (Sloan-Kettering Institute for Cancer Research, priority 1998, dated 2002).

Tests used:
[1] = system: HeLa cells expressing antisense Ku80; assay: Cytotoxicity in stable HeLa cells expressing antisense Ku80 RNA (Tet-Off); type: cell-based, human; conditions: adriamycin 1 μg/ml; expression of Ku80 antisense RNA; FIG. 13
[2] = system: cells derived from Ku70 knock-out mice; assay: Survival experiments with cells derived from Ku70 knock-out mice; type: cell-based; conditions: Ku70 knock-out mouse cells, FIG. 12
[3] = system: HeLa cells expressing antisense Ku70; assay: Cytotoxicity in stable HeLa cells expressing antisense Ku70 RNA (Tet-Off); type: cell-based, human; conditions: adriamycin 1 μg/ml; expression of Ku70 antisense RNA; FIG. 13
Method: Effect of (A) radiation, and (B) adriamycin on different cell types. O=HeLa controls cells; ▪=HeLa cells expressing antisense Ku70; ▴=HeLa cell expressing antisense Ku80.
Stable HeLa cells, containing human Ku70 cDNA or human Ku80 cDNA, in the antisense orientation, under the regulation of the Tet-Off™ expression system (Clonetech), were established. Upon induction of the expression system these cells should produce antisense Ku70 or Ku80 RNA, respectively. Experiments were performed showing (FIG. 13) that expression of either Ku70 or Ku80 antisense RNA increased the cytotoxic effect adriamycin by 3-5 fold at 1 μg/ml and that expression of Ku70 antisense RNA increased the cytotoxic effect of γ-radiation approximately 5 fold (at 6 Gy).

[4] = system: cells derived from Ku80 knock-out mice; assay: Survival experiments with cells derived from Ku80 knock-out mice; type: cell-based; conditions: Ku80 knock-out mouse cells, FIG. 12

Molecule | increase of the cytotoxic effect of adriamycin [1] | sensitivity of cells to the agent (survival) [2] | increase of the cytotoxic effect of adriamycin [3] | sensitivity of cells to the agent (survival) [4]
COc1cccc2c1C(=O)c1c(O)c3c(c(O)c1C2=O)C[C@@](O)(C(=O)CO)C[C@@H]3O[C@H]1C[C@H](N)[C@H](O)[C@H](C)O1 [adriamycin] | 3-5 fold | very sensitive | 3-5 fold | very sensitive
bleomycin | – | very sensitive | – | very sensitive
